Reference: the supplement of paper PMC11208160

test: recombinant UMI read abundance after kanamycin selection (control-corrected) (log10(CPM+1)); higher = more efficient recombination; extreme values may be limits of the assay; sequences stand for … in AGTGCAGAGAAAATCGGCCAGTTTTCTCTGCCTGCAGTCCGCATGCCGTGGGACCCCTTGGGTTCTAACCTGTTGCCTAGATTTATGCAGCGGACTGCCTTTCTCCCAAAGTGATAAACCGG…AGGTTGGTTTCACT; site = the 11-nt donor
Method in brief: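 Each donor and donor-binding-loop pair was tracked by a 12-nt UMI on a plasmid carrying a promoterless kanamycin gene. With a second plasmid supplying a fixed target and T7-inducible IS621 bridge recombinase, the pool was plated in Escherichia coli on IPTG (0.07 mM) plus kanamycin or unselected. Sequencing of recombinant UMIs across the donor–target junction gave counts expressed as log10(CPM+1) after replicate averaging and control-derived scaling.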

Row | Sequence | recombinant UMI read abundance (log10)
1 | GTAGTAGCATGGACCGGTTTTCCCGGTAATCCGTATTTGCG (site GTAGTAGCTCG) | 2.62
2 | GTAGTAGCATGGACCGGTTTTCCCGGTAATCCGTATTTGCG (site GTAGTCGCTCG) | 0.72
3 | GTAGTAGCATGGACCGGTTTTCCCGGTAATCCGTATTTGCG (site GTAGTGGCTCG) | 1.53
4 | GTAGTAGCATGGACCGGTTTTCCCGGTAATCCGTATTTGCG (site GTAGTTGCTCG) | 1.32
5 | GTAGTATCATGGACCGGTTTTCCCGGTAATCCGTATTTGAC (site ATAGTATCTGT) | 3.09
6 | GTAGTATCATGGACCGGTTTTCCCGGTAATCCGTATTTGAC (site CTAGTATCTGT) | 2.47
7 | GTAGTATCATGGACCGGTTTTCCCGGTAATCCGTATTTGAC (site GTAGTATCTGT) | 3.41
8 | GTAGTATCATGGACCGGTTTTCCCGGTAATCCGTATTTGAC (site TTAGTATCTGT) | 2.29
9 | GTAGTATCATGGACCGGTTTTCCCGGTAATCCGTATTTGCC (site GTAGTATCTGG) | 2.55
10 | GTAGTATCATGGACCGGTTTTCCCGGTAATCCGTATTTGGC (site CTAGTATCTGT) | 0.582
11 | GTAGTATCATGGACCGGTTTTCCCGGTAATCCGTATTTGGC (site GTAGTATCTGC) | 3.51
12 | GTAGTCGCATGGACCGGTTTTCCCGGTAATCCGTATTTGCG (site ATAGTCGCTCG) | 0.405
13 | GTAGTCGCATGGACCGGTTTTCCCGGTAATCCGTATTTGCG (site CTAGTCGCTCG) | 0.145
14 | GTAGTCGCATGGACCGGTTTTCCCGGTAATCCGTATTTGCG (site GAAGTCGCTCG) | 0.0146
15 | GTAGTCGCATGGACCGGTTTTCCCGGTAATCCGTATTTGCG (site GCAGTCGCTCG) | 0.162
16 | GTAGTCGCATGGACCGGTTTTCCCGGTAATCCGTATTTGCG (site GGAGTCGCTCG) | 0.0136
17 | GTAGTCGCATGGACCGGTTTTCCCGGTAATCCGTATTTGCG (site GTAATCGCTCG) | 1.31
18 | GTAGTCGCATGGACCGGTTTTCCCGGTAATCCGTATTTGCG (site GTACTCGCTCG) | 0.0126
19 | GTAGTCGCATGGACCGGTTTTCCCGGTAATCCGTATTTGCG (site GTAGACGCTCG) | 0.714
20 | GTAGTCGCATGGACCGGTTTTCCCGGTAATCCGTATTTGCG (site GTAGCCGCTCG) | 0.584
21 | GTAGTCGCATGGACCGGTTTTCCCGGTAATCCGTATTTGCG (site GTAGGCGCTCG) | 0.0201
22 | GTAGTCGCATGGACCGGTTTTCCCGGTAATCCGTATTTGCG (site GTAGTAGCTCG) | 0.489
23 | GTAGTCGCATGGACCGGTTTTCCCGGTAATCCGTATTTGCG (site GTAGTCACTCG) | 1.24

Row | Sequence | recombinant UMI read abundance (log10)
24 | GTAGTCGCATGGACCGGTTTTCCCGGTAATCCGTATTTGCG (site GTAGTCCCTCG) | 0.553
25 | GTAGTCGCATGGACCGGTTTTCCCGGTAATCCGTATTTGCG (site GTAGTCGCTAG) | 1.23
26 | GTAGTCGCATGGACCGGTTTTCCCGGTAATCCGTATTTGCG (site GTAGTCGCTCA) | 0.421
27 | GTAGTCGCATGGACCGGTTTTCCCGGTAATCCGTATTTGCG (site GTAGTCGCTCC) | 0.0196
28 | GTAGTCGCATGGACCGGTTTTCCCGGTAATCCGTATTTGCG (site GTAGTCGCTCG) | 1.61
29 | GTAGTCGCATGGACCGGTTTTCCCGGTAATCCGTATTTGCG (site GTAGTCGCTCT) | 0.471
30 | GTAGTCGCATGGACCGGTTTTCCCGGTAATCCGTATTTGCG (site GTAGTCGCTGG) | 1.34
31 | GTAGTCGCATGGACCGGTTTTCCCGGTAATCCGTATTTGCG (site GTAGTCGCTTG) | 1.95
32 | GTAGTCGCATGGACCGGTTTTCCCGGTAATCCGTATTTGCG (site GTAGTCTCTCG) | 2
33 | GTAGTCGCATGGACCGGTTTTCCCGGTAATCCGTATTTGCG (site GTAGTGGCTCG) | 0.013
34 | GTAGTCGCATGGACCGGTTTTCCCGGTAATCCGTATTTGCG (site GTAGTTGCTCG) | 0.00541
35 | GTAGTCGCATGGACCGGTTTTCCCGGTAATCCGTATTTGCG (site GTATTCGCTCG) | 0.011
36 | GTAGTCGCATGGACCGGTTTTCCCGGTAATCCGTATTTGCG (site GTCGTCGCTCG) | 0.00603
37 | GTAGTCGCATGGACCGGTTTTCCCGGTAATCCGTATTTGCG (site GTGGTCGCTCG) | 0.0189
38 | GTAGTCGCATGGACCGGTTTTCCCGGTAATCCGTATTTGCG (site GTTGTCGCTCG) | 0.285
39 | GTAGTCGCATGGACCGGTTTTCCCGGTAATCCGTATTTGCG (site TTAGTCGCTCG) | 1.26
40 | GTAGTGACATGGACCGGTTTTCCCGGTAATCCGTATTTGCC (site GTAGTGACTGG) | 2.58
41 | GTATAGGCATGGACCGGTTTTCCCGGTAATCCGTATTTGTA (site GTATAGGCTTA) | 2.22
42 | GTATCTCCATGGACCGGTTTTCCCGGTAATCCGTATTTGAA (site GTATCTCCTTT) | 1.19
43 | GTATGAACATGGACCGGTTTTCCCGGTAATCCGTATTTGAG (site GTATGAACTCT) | 1.87
44 | GTATGCACATGGACCGGTTTTCCCGGTAATCCGTATTTGGA (site GTATGCACTTA) | 0.901
45 | GTATGCACATGGACCGGTTTTCCCGGTAATCCGTATTTGGA (site GTATGCACTTC) | 0.931
46 | GTATGCACATGGACCGGTTTTCCCGGTAATCCGTATTTGGA (site GTATGCACTTG) | 0.783

Row | Sequence | recombinant UMI read abundance (log10)
47 | GTATGCACATGGACCGGTTTTCCCGGTAATCCGTATTTGGA (site GTATGCACTTT) | 0.924
48 | GTATGGCCATGGACCGGTTTTCCCGGTAATCCGTATTTGCA (site GAATGGCCTTG) | 0
49 | GTATGGCCATGGACCGGTTTTCCCGGTAATCCGTATTTGCA (site GCATGGCCTTG) | 0
50 | GTATGGCCATGGACCGGTTTTCCCGGTAATCCGTATTTGCA (site GGATGGCCTTG) | 0
51 | GTATGGCCATGGACCGGTTTTCCCGGTAATCCGTATTTGCA (site GTATGGCCTTG) | 0
52 | GTATGTTCATGGACCGGTTTTCCCGGTAATCCGTATTTGAG (site GTATGTTCTCT) | 2.52
53 | GTATTACCATGGACCGGTTTTCCCGGTAATCCGTATTTGCA (site GTATTACCTTG) | 0
54 | GTATTATCATGGACCGGTTTTCCCGGTAATCCGTATTTGAC (site CTAGTATCTGT) | 1.38
55 | GTATTATCATGGACCGGTTTTCCCGGTAATCCGTATTTGAC (site GTATTATCTGT) | 2.66
56 | GTCAAACCATGGACCGGTTTTCCCGGTAATCCGTATTTGGT (site GACAAACCTAC) | 0
57 | GTCAAACCATGGACCGGTTTTCCCGGTAATCCGTATTTGGT (site GCCAAACCTAC) | 0
58 | GTCAAACCATGGACCGGTTTTCCCGGTAATCCGTATTTGGT (site GGCAAACCTAC) | 0
59 | GTCAAACCATGGACCGGTTTTCCCGGTAATCCGTATTTGGT (site GTCAAACCTAC) | 0
60 | GTCACACCATGGACCGGTTTTCCCGGTAATCCGTATTTGTT (site GTCACACCTAA) | 0.00382
61 | GTCACGACATGGACCGGTTTTCCCGGTAATCCGTATTTGGT (site GTCACGACTAC) | 1.06
62 | GTCACTGCATGGACCGGTTTTCCCGGTAATCCGTATTTGAT (site GTCACTGCTAT) | 1.99
63 | GTCAGAACATGGACCGGTTTTCCCGGTAATCCGTATTTGGC (site GTAAGAACTGC) | 0.371
64 | GTCAGAACATGGACCGGTTTTCCCGGTAATCCGTATTTGGC (site GTCAGAACTGC) | 1.57
65 | GTCAGAACATGGACCGGTTTTCCCGGTAATCCGTATTTGGC (site GTGAGAACTGC) | 0
66 | GTCAGAACATGGACCGGTTTTCCCGGTAATCCGTATTTGGC (site GTTAGAACTGC) | 0
67 | GTCAGCCCATGGACCGGTTTTCCCGGTAATCCGTATTTGAC (site GTCAGCCCTGT) | 1.33
68 | GTCAGCGCATGGACCGGTTTTCCCGGTAATCCGTATTTGGC (site GTCAGCGCTGC) | 2.6
